Laboratory results reported in article PMC9170154, “Identification of an arthropod molecular target for plant-derived natural repellents” (Proceedings of the National Academy of Sciences of the …, 2022).
Changes are numbered by the printed parent chain.

Tests used:
Assay in all cases: whole-cell patch clamp, HEK […]
sTRP1 (scorpion TRP1) [1] = tested on: T1, sTRP1 (scorpion TRP1); type: cell-based, Olivierus martensii; conditions: current evoked by 2 mM citronellal after sensitization
T1 construct: full-length cDNA (791 residues) cloned by RACE PCR, in pIRES2-EGFP vector, transiently expressed in HEK 293T cells

dTRPγ [2] = molecular target: T2, dTRPγ (Drosophila melanogaster, UniProt Q9VJJ7); type: cell-based; conditions: agonist
T2 construct: gene Trpgamma
T2 sequence (Q9VJJ7 1-1128): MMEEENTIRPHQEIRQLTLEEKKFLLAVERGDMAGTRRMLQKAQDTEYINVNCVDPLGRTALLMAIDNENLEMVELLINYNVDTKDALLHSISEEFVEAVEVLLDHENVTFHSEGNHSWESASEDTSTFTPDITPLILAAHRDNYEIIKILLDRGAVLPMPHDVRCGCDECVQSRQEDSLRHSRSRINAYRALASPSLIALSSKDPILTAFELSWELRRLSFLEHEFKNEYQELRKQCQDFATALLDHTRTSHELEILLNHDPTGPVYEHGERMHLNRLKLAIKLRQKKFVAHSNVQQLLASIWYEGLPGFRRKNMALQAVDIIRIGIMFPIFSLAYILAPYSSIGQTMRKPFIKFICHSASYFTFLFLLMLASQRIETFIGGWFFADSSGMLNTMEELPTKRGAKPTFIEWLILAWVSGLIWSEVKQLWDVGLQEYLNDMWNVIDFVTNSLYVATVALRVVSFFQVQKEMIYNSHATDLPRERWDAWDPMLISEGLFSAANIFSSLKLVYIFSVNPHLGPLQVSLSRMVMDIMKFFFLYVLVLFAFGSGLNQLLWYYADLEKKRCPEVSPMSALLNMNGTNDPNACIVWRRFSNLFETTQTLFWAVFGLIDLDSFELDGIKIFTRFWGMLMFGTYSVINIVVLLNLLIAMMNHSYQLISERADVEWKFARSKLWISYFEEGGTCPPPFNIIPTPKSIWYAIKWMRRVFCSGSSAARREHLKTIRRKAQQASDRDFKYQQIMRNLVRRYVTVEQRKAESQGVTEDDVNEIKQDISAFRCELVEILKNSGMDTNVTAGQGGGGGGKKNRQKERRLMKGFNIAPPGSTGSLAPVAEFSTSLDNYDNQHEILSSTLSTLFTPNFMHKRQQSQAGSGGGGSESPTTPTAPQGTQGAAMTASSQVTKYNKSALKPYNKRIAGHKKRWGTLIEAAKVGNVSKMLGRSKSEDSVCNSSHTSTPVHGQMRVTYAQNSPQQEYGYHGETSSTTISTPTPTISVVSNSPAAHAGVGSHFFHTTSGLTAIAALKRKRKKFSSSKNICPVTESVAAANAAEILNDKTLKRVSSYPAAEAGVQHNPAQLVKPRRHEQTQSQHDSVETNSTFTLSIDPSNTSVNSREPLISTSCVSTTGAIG

sTRP1 (scorpion TRP1) [3] = tested on: T1, sTRP1 (scorpion TRP1); type: cell-based, Olivierus martensii; conditions: agonist, after full sensitization
dTRPγ [4] = molecular target: T2, dTRPγ; type: cell-based; conditions: dTRPγ mutant
dTRPγ [5] = molecular target: T2, dTRPγ; type: cell-based
dTRPγ [6] = molecular target: T3, dTRPγ (Drosophila melanogaster, UniProt Q9VJJ7, V515A); type: cell-based; conditions: dTRPγ mutant
T3 construct: gene Trpgamma
T3 sequence (Q9VJJ7 1-1128 V515A): T2 sequence (Q9VJJ7 1-1128) with V515A

NCCOB(c1ccccc1)c1ccccc1 [2-aminoethoxydiphenyl borate]
IC50 (sTRP1 (scorpion TRP1) [1]; inhibitor, nH 1.3): 48.3 ± 5.58 µM

CC12CCC(CC1=O)C2(C)C (centres unmarked) [camphor]
whole-cell patch clamp, HEK 293T (dTRPγ [2]): We here show that camphor activates both sTRP1 and dTRPγ (SI Appendix, Fig. S11) | EC50 (sTRP1 (scorpion TRP1) [3]; nH 2.4): 3300 ± 200 µM

CC(C)=CCCC(C)CC=O (centres unmarked) [citronellal]
EC50 (sTRP1 (scorpion TRP1) [3]; nH 3.3): 560 ± 10 µM | whole-cell patch clamp, HEK 293T (dTRPγ [4]): mutant V513L reduced the response to citronellal and citronellol | EC50 (dTRPγ [5]): 870 ± 50 µM

CC(C)=CCCC(C)CCO (centres unmarked) [citronellol]
whole-cell patch clamp, HEK 293T (dTRPγ [6]): the V515A substitution selectively impaired the sensitivity to citronellol and camphor | EC50 (sTRP1 (scorpion TRP1) [3]; nH 3.6): 300 ± 10 µM | whole-cell patch clamp, HEK 293T (dTRPγ [4]): mutant V513L reduced the response to citronellal and citronellol | EC50 (dTRPγ [5]): 490 ± 20 µM

Cl.Cl.Cl.Cl.Cl.Cl.N.N.N.N.N.N.N.N.N.N.N.N.N.N.[O-2].[O-2].[Ru+3].[Ru+3].[Ru+4] [ruthenium red]
IC50 (sTRP1 (scorpion TRP1) [1]; channel blocker, nH 1.6): 3.12 ± 0.29 µM
